Values quoted from earlier work in patent US6790965B1, “Combinatorial dihydrobenzopyran library” (Pharmacopeia Drug Discovery, Inc., priority 1994, dated 2004).

Target: bovine carbonic anhydrase (Bos taurus, UniProt P00921)
Details: relatively weak inhibitor, displaced by increased dansylamide concentration

Chain of bovine carbonic anhydrase (P00921 whole entry): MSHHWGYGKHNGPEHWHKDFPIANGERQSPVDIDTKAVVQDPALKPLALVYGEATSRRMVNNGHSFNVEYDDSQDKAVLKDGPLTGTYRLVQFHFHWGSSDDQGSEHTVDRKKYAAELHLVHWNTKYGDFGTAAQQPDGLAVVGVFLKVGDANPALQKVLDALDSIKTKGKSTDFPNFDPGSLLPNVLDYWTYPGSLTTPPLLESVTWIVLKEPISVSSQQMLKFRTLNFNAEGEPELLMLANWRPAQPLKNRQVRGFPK

## NS(=O)(=O)c1cc2c(cc1Cl)N=CNS2(=O)=O [chlorothiazide]
  Ki: ~75 nM
